Measured values taken from patent US9670157B2, “Benzylamine derivatives” (KALVISTA PHARMACEUTICALS LIMITED, priority 2013, dated 2017).

Tests used:
Human plasma kallikrein = Human plasma kallikrein (Homo sapiens (Human), UniProt P03952); assay: Determination of the IC50 for Plasma Kallikrein; type: biochemical; details: 37° C., fluorogenic substrate H-DPro-Phe-Arg-AFC; read-out: IC50 (human PKal)
Description: Human plasma kallikrein (Protogen) was incubated at 37° C. with the fluorogenic substrate H-DPro-Phe-Arg-AFC and various concentrations of the test compound. Residual enzyme activity (initial rate of reaction) was determined by measuring the change in optical absorbance at 410 nm and the IC50 value for the test compound was determined.

Human KLK1 = Human KLK1 (Homo sapiens (Human), UniProt P06870); assay: Determination of the IC50 for KLK1; type: biochemical; details: 37° C., fluorogenic substrate H-DVal-Leu-Arg-AFC
Human KLK1, sequence (P06870 25-262): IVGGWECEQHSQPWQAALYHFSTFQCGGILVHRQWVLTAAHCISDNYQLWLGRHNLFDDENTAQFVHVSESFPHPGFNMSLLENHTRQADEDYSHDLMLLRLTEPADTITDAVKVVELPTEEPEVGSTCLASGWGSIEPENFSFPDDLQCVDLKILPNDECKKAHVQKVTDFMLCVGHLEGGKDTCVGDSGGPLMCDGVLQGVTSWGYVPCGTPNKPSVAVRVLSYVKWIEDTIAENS
Method in brief: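 KLK1 inhibition was measured in vitro following standard published methods. Human KLK1 (Callbiochem) was incubated at 37° C. with the fluorogenic substrate H-DVal-Leu-Arg-AFC in the presence of a range of test compound concentrations. Residual enzyme activity, taken as the initial reaction rate, was followed by the change in optical absorbance at 410 nm, and IC50 values were derived.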

thrombin = thrombin (Homo sapiens (Human), UniProt P00734); assay: Determination of Enzyme Selectivity: thrombin; type: biochemical; details: substrate at Km concentration
Description: (§1) Human serine protease enzymes plasmin, thrombin, trypsin, Factor Xa and Factor XIIa were assayed for enzymatic activity using an appropriate fluorogenic substrate. Protease activity was measured by monitoring the accumulation of liberated fluorescence from the substrate over 5 minutes. The linear rate of fluorescence increase per minute was expressed as percentage (%) activity. The Km for the cleavage of each substrate was determined by standard transformation of the Michaelis-Menten equation.

trypsin = assay: Determination of Enzyme Selectivity: trypsin; type: biochemical, Human; details: substrate at Km concentration
Description: as §1

plasmin = plasmin (Homo sapiens (Human), UniProt P00747); assay: Determination of Enzyme Selectivity: plasmin; type: biochemical; details: substrate at Km concentration
plasmin, sequence (P00747 581-810): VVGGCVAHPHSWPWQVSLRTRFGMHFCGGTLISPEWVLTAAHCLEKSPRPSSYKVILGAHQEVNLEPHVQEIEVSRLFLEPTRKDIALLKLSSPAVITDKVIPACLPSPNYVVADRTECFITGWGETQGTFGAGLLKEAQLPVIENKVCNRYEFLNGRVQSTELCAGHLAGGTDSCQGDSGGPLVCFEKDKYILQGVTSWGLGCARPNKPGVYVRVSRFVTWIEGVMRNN
plasmin, sequence (P00747 97-580 partner): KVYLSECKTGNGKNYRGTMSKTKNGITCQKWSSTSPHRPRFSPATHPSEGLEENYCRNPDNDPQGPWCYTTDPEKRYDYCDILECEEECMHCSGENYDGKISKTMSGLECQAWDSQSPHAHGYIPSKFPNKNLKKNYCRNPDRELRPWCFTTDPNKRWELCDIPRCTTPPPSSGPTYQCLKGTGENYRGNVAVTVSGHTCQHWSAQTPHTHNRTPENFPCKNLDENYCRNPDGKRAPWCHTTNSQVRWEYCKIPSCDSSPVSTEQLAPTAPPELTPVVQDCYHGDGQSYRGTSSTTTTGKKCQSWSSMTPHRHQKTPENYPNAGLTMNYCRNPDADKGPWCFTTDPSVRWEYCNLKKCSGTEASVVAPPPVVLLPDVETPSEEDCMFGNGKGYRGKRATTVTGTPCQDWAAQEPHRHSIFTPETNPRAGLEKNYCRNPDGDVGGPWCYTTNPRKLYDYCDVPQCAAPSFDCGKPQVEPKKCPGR
Description: as §1

Factor XIIa = Factor XIIa (Homo sapiens (Human), UniProt P00748); assay: Determination of Enzyme Selectivity: Factor XIIa; type: biochemical; details: substrate at Km concentration
Factor XIIa, sequence (P00748 373-615): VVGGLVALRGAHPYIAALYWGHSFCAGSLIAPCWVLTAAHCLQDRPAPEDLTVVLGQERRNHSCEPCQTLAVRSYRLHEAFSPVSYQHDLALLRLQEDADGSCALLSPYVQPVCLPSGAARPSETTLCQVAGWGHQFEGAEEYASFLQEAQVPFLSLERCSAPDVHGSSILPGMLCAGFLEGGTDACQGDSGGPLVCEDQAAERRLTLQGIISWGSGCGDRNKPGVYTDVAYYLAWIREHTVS
Description: as §1

[1] = Pharmacokinetics following a single oral dose in rats; type: in vivo; details: rat, nominal 10 mg/kg, male Sprague-Dawley rats, plasma
Description: Pharmacokinetic studies of selected examples were performed to assess the pharmacokinetics following a single oral dose in male Sprague-Dawley rats. Typically, either two or three rats were given a single po dose of 5 mL/kg of a nominal 2 mg/mL (10 mg/kg) composition of test compound in either 5% cremophor:5% ethanol:90% phosphate buffered saline or 20% Labrasol:80% water. Following dosing, blood samples were collected over a period of 8 hours. Typical sample times include 5, 15 and 30 minutes then 1, 2, 4, 6 and 8 hours. Following collection, blood samples were centrifuged and the plasma fraction analysed for concentration of test compound by LCMS.

Human plasma kallikrein, sequence (P03952 391-638): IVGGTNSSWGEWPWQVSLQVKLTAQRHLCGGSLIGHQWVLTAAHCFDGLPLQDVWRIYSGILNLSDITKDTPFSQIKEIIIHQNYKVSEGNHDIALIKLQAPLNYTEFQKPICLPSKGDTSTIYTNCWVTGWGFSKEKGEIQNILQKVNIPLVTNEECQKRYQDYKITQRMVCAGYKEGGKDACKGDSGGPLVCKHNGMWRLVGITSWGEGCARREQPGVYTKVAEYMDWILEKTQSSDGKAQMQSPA
Human plasma kallikrein, sequence (P03952 20-390 partner): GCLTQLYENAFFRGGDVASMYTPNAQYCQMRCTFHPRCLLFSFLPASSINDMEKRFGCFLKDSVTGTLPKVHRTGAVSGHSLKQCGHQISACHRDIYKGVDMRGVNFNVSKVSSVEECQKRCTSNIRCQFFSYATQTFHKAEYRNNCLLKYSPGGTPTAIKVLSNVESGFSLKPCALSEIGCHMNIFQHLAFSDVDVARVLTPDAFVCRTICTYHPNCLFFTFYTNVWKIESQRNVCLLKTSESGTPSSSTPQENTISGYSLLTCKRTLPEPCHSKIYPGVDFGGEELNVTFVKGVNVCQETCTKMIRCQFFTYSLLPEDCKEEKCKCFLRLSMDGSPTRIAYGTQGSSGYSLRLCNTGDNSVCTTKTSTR

`Cc1cc(C(=O)NCc2ccc(CN)cc2)c(C)n1Cc1csc(-c2ccccc2)n1` [Example 1, 2,5-Dimethyl-1-(2-phenyl-thiazol-4-ylmethyl)-1H-pyrrole-3-carboxylic acid 4-aminomethyl-benzylamide] gave an IC50 (Human plasma kallikrein) of 0.063 µM, an IC50 (Human KLK1) of over 10 µM and an IC50 (thrombin) of over 40 µM. The IC50 (trypsin) was over 40 µM, the IC50 (plasmin) was over 40 µM and the IC50 (Factor XIIa) was over 10 µM. For the same molecule, the Cmax [1] was 81 ng/mL and the Tmax [1] was 4.67 h.

With `Cc1cc(CN)ccc1CNC(=O)c1cc(C)n(Cc2csc(-c3ccccc3)n2)c1C` [Example 2, 2,5-Dimethyl-1-(2-phenyl-thiazol-4-ylmethyl)-1H-pyrrole-3-carboxylic acid 4-aminomethyl-2-methyl-benzylamide] the IC50 (Human plasma kallikrein) was 0.015 µM, the IC50 (Human KLK1) was over 10 µM and the IC50 (thrombin) was over 40 µM. The IC50 (trypsin) was over 40 µM, the IC50 (plasmin) was 24.8 µM and the IC50 (Factor XIIa) was over 10 µM. It also gave a Cmax [1] of 59 ng/mL and a Tmax [1] of 5 h.

With `Cc1cc(C(=O)NCc2ccc(CN)cc2)c(C)n1Cc1csc(-c2ccsc2)n1` [Example 37, 2,5-Dimethyl-1-(2-thiophen-3-yl-thiazol-4-ylmethyl)-1H-pyrrole-3-carboxylic acid 4-aminomethyl-benzylamide] the IC50 (Human plasma kallikrein) was 0.17 µM, the IC50 (Human KLK1) was over 10 µM and the Cmax [1] was 171 ng/mL. It also gave a Tmax [1] of 3.5 h.

`Cc1cc(C(=O)NCc2ccc(CN)nc2)c(C)n1Cc1csc(-c2ccccc2)n1` [Example 43, 2,5-Dimethyl-1-(2-phenyl-thiazol-4-ylmethyl)-1H-pyrrole-3-carboxylic acid (6-aminomethyl-pyridin-3-ylmethyl)-amide] gave an IC50 (Human plasma kallikrein) of 0.196 µM, an IC50 (Human KLK1) of over 10 µM and a Cmax [1] of 71 ng/mL. For the same molecule, the Tmax [1] was 4 h.

With `Cc1cc(C(=O)NCc2ccc(CN)c(F)c2)c(C)n1Cc1csc(-c2ccccc2)n1` [Example 45, 2,5-Dimethyl-1-(2-phenyl-thiazol-4-ylmethyl)-1H-pyrrole-3-carboxylic acid 4-aminomethyl-3-fluoro-benzylamide] the IC50 (Human plasma kallikrein) was 0.135 µM, the IC50 (Human KLK1) was over 10 µM and the Cmax [1] was 228 ng/mL. For the same molecule, the Tmax [1] was 2.58 h.

Molecule `NCc1ccc(CNC(=O)c2cn(Cc3csc(-c4ccccc4)n3)nc2C(F)(F)F)cc1` [Example 83, 1-(2-Phenyl-thiazol-4-ylmethyl)-3-trifluoromethyl-1H-pyrazole-4-carboxylic acid 4-aminomethyl-benzylamide] has an IC50 (Human plasma kallikrein) of 0.452 µM, an IC50 (Human KLK1) of over 10 µM and an IC50 (thrombin) of over 40 µM. For the same molecule, the IC50 (trypsin) was 26.6 µM, the IC50 (plasmin) was 27.2 µM and the IC50 (Factor XIIa) was over 8.51 µM.

For `NCc1ccc(CNC(=O)c2cn(Cc3ccccc3)nc2-c2ccccc2)cc1` [Example 84, 1-Benzyl-3-phenyl-1H-pyrazole-4-carboxylic acid 4-aminomethyl-benzylamide], the IC50 (Human plasma kallikrein) was 8.38 µM, the IC50 (Human KLK1) was over 10 µM and the IC50 (thrombin) was over 40 µM. The IC50 (trypsin) was over 40 µM, the IC50 (plasmin) was over 40 µM and the IC50 (Factor XIIa) was over 10 µM.

`Cc1cnn(Cc2ccc(Cn3c(C)cc(C(=O)NCc4c(C)cc(CN)cc4C)c3C)cc2)c1` [Example 101, 2,5-Dimethyl-1-[4-(4-methyl-pyrazol-1-ylmethyl)-benzyl]-1H-pyrrole-3-carboxylic acid 4-aminomethyl-2,6-dimethyl-benzylamide] gave an IC50 (Human plasma kallikrein) of 0.004 µM, an IC50 (Human KLK1) of 6.31 µM and an IC50 (Factor XIIa) of over 10 µM. The Cmax [1] was 67 ng/mL and the Tmax [1] was 5 h.

Work on `Cc1cnn(Cc2ccc(Cn3cc(C(=O)NCc4ccc(CN)c(F)c4C)c(C(F)(F)F)n3)cc2)c1` [Example 119, 1-[4-(4-Methyl-pyrazol-1-ylmethyl)-benzyl]-3-trifluoromethyl-1H-pyrazole-4-carboxylic acid 4-aminomethyl-3-fluoro-2-methyl-benzylamide] yielded an IC50 (Human plasma kallikrein) of 0.009 µM, an IC50 (Human KLK1) of over 10 µM and an IC50 (Factor XIIa) of over 40 µM.

`CCn1c(C(=O)NCc2ccc(CN)cc2)cc(C)c1Cc1csc(-c2ccccc2)n1` [Example 123, 1-Ethyl-4-methyl-5-(2-phenyl-thiazol-4-ylmethyl)-1H-pyrrole-2-carboxylic acid 4-aminomethyl-benzylamide] showed an IC50 (Human plasma kallikrein) of 2.15 µM and an IC50 (Human KLK1) of over 10 µM.

Molecule `Cc1ccc2cc(Cn3cc(C(=O)NCc4c(C)cc(CN)cc4C)c(C)n3)ccc2n1` [Example 124, 3-Methyl-1-(2-methyl-quinolin-6-ylmethyl)-1H-pyrazole-4-carboxylic acid 4-aminomethyl-2,6-dimethyl-benzylamide] has an IC50 (Human plasma kallikrein) of 0.002 µM, an IC50 (Human KLK1) of 0.301 µM and an IC50 (Factor XIIa) of over 40 µM.

In the case of `Cc1ccc2cc(Cn3ncc(C(=O)NCc4c(C)cc(CN)cc4C)c3C)ccc2n1` [Example 125, 5-Methyl-1-(2-methyl-quinolin-6-ylmethyl)-1H-pyrazole-4-carboxylic acid 4-aminomethyl-2,6-dimethyl-benzylamide], the IC50 (Human plasma kallikrein) is reported as 0.003 µM, the IC50 (Human KLK1) is reported as 0.657 µM and the IC50 (Factor XIIa) is reported as over 40 µM.

`Cc1ccc2cc(Cn3cc(C(=O)NCc4c(C)cc(CN)cc4C)c(C(F)(F)F)n3)ccc2n1` [Example 126, 1-(2-Methyl-quinolin-6-ylmethyl)-3-trifluoromethyl-1H-pyrazole-4-carboxylic acid 4-aminomethyl-2,6-dimethyl-benzylamide] showed an IC50 (Human KLK1) of 0.566 µM and an IC50 (Factor XIIa) of over 40 µM.

For `Cc1ccc2cc(Cn3ncc(C(=O)NCc4c(C)cc(CN)cc4C)c3C(F)(F)F)ccc2n1` [Example 127, 1-(2-Methyl-quinolin-6-ylmethyl)-5-trifluoromethyl-1H-pyrazole-4-carboxylic acid 4-aminomethyl-2,6-dimethyl-benzylamide], the IC50 (Human KLK1) was over 10 µM and the IC50 (Factor XIIa) was over 40 µM.

`Cc1ccc2cc(Cn3c(C)cc(C(=O)NCc4c(C)cc(CN)cc4C)c3C)ccc2n1` [Example 128, 2,5-Dimethyl-1-(2-methyl-quinolin-6-ylmethyl)-1H-pyrrole-3-carboxylic acid 4-aminomethyl-2,6-dimethyl-benzylamide] gave an IC50 (Human plasma kallikrein) of 0.934 µM and an IC50 (Human KLK1) of 2.66 µM.

`Cc1cc(CN)cc(C)c1CNC(=O)c1cn(Cc2ccnc(N3CCCC3)c2)nc1C(F)(F)F` [Example 129, 1-(2-Pyrrolidin-1-yl-pyridin-4-ylmethyl)-3-trifluoromethyl-1H-pyrazole-4-carboxylic acid 4-aminomethyl-2,6-dimethyl-benzylamide] gave an IC50 (Human plasma kallikrein) of 0.024 µM and an IC50 (Human KLK1) of over 10 µM.
